Assays:
Test in all cases: DiscoveRx scanMAX kinase profiling
Format in all cases: binding
ERK2 (MAPK1) = molecular target: T1, ERK2 (MAPK1) (Homo sapiens, UniProt P28482); settings: read-out: Direct inhibitory activity on ERK2 (KINOMEscan)
T1 construct: purchased DiscoverX (San Diego, Calif.) scanMAX
Experimental: (§1) Biochemical assays: Recombinant human EIF2AK3 (PERK) catalytic domain (amino acids 536-1116; Cat # PV5107), GFP-eIF2a (Cat # PV4809) substrate, and Terbium-labelled phospho-eIF2a antibody (Cat # PR8956B) were purchased from Invitrogen (Carlsbad, Calif.). HIS-SUMO-GCN2 catalytic domain (amino acids 584-1019) was expressed and purified from E. coli. TR-FRET kinase assays were performed in the absence or presence of inhibitors in a reaction buffer consisting of 50 mM HEPES, pH 7.5, 10 mMMgCl2, 1.0 mM EGTA, and 0.01% Brij-35, and 100-200 nM GFP-eIF2a substrate. […] Following the addition of test compound, the reaction was initiated by addition of enzyme and incubated at room temperature for 45 minutes. The reaction was stopped by addition of EDTA to a final concentration of 10 mM and Terbium-labelled phospho-eIF2α antibody was added at a final concentration of 2 nM and incubated for 90 minutes. The resulting fluorescence was monitored in an EnVison® Multilabel reader (PerkinElmer, Waltham, Mass.). TR-FRET ratios and the resulting IC50 values were determined from the fitted inhibition curves. Biochemical specificity profiling was performed at Cerep (Redmond, Wash.) and DiscoverX (San Diego, Calif.).

ERK3 (MAPK6) = molecular target: T2, ERK3 (MAPK6) (Homo sapiens, UniProt Q16659); settings: read-out: Direct inhibitory activity on ERK3 (KINOMEscan)
T2 construct: purchased DiscoverX (San Diego, Calif.) scanMAX
T2 sequence (Q16659 whole entry): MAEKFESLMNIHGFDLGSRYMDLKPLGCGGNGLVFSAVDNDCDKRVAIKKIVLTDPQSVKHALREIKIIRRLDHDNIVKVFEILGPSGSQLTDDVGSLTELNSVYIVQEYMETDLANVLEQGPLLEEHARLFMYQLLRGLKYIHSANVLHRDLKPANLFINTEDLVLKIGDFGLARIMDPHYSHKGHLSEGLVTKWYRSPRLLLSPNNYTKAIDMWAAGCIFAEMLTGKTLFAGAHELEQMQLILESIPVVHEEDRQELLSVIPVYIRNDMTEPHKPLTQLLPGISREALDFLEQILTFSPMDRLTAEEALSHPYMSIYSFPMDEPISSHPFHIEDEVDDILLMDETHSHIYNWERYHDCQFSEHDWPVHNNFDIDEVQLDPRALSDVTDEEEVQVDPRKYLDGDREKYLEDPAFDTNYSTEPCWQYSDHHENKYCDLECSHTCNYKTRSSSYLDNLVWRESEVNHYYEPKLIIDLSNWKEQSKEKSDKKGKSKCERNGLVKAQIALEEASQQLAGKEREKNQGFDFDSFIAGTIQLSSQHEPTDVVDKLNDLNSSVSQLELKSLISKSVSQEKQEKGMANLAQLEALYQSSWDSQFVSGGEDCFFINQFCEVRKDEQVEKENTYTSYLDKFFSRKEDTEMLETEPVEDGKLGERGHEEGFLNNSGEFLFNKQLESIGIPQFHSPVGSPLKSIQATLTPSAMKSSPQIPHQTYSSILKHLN
Experimental: as §1

SYK = molecular target: T3, SYK (Homo sapiens, UniProt P43405); settings: read-out: Direct inhibitory activity on SYK (KINOMEscan)
T3 construct: purchased DiscoverX (San Diego, Calif.) scanMAX
Experimental: as §1

EGFR = molecular target: T4, EGFR (Homo sapiens, UniProt P00533); settings: read-out: Direct inhibitory activity on EGFR (KINOMEscan)
T4 construct: purchased DiscoverX (San Diego, Calif.) scanMAX
Experimental: as §1

ERK8 (MAPK15) = molecular target: T5, ERK8 (MAPK15) (Homo sapiens, UniProt Q8TD08); settings: read-out: Direct inhibitory activity on ERK8 (KINOMEscan)
T5 construct: purchased DiscoverX (San Diego, Calif.) scanMAX
T5 sequence (Q8TD08 1-544): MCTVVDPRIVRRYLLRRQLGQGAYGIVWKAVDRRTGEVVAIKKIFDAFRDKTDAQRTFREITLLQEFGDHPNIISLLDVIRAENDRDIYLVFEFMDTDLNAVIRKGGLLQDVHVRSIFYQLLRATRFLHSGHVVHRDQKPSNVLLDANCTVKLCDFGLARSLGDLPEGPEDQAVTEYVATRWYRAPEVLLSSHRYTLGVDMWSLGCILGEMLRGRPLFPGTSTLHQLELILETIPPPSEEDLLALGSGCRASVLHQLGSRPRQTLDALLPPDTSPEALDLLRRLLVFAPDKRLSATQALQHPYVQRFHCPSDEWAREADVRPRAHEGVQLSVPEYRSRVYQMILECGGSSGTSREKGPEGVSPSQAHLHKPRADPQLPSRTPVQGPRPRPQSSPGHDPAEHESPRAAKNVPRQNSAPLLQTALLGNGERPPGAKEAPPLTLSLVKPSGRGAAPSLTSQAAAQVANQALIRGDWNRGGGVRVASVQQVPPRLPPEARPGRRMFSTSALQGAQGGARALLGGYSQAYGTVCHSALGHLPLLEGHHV
Experimental: as §1

AKT2 = molecular target: T6, AKT2 (Homo sapiens, UniProt P31751); settings: read-out: Direct inhibitory activity on AKT2 (KINOMEscan)
T6 construct: purchased DiscoverX (San Diego, Calif.) scanMAX
T6 sequence (P31751 whole entry): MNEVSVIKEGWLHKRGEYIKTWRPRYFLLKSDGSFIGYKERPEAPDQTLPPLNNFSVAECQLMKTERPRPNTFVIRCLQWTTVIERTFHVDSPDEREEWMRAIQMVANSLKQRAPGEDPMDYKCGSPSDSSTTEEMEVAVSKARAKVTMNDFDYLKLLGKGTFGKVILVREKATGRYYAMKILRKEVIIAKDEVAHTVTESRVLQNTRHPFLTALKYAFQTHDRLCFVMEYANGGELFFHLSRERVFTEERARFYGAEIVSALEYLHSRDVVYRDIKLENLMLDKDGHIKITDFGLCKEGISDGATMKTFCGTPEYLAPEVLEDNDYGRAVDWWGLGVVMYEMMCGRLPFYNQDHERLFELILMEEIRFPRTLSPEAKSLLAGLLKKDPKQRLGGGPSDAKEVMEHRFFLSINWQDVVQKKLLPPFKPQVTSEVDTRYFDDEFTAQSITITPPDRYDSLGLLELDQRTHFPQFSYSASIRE
Experimental: as §1

ERBB2 = molecular target: T7, ERBB2 (Homo sapiens, UniProt P04626); settings: read-out: Direct inhibitory activity on ERBB2 (KINOMEscan)
T7 construct: purchased DiscoverX (San Diego, Calif.) scanMAX
Experimental: as §1

PIK3CB = molecular target: T8, PIK3CB (Homo sapiens, UniProt P42338); settings: read-out: Direct inhibitory activity on PIK3CB (KINOMEscan)
T8 construct: purchased DiscoverX (San Diego, Calif.)
Experimental: as §1

PYK2 (PTK2B) = molecular target: T9, PYK2 (PTK2B) (Homo sapiens, UniProt Q14289); settings: read-out: Direct inhibitory activity on PYK2 (KINOMEscan)
T9 construct: purchased DiscoverX (San Diego, Calif.)
T9 sequence (Q14289 whole entry): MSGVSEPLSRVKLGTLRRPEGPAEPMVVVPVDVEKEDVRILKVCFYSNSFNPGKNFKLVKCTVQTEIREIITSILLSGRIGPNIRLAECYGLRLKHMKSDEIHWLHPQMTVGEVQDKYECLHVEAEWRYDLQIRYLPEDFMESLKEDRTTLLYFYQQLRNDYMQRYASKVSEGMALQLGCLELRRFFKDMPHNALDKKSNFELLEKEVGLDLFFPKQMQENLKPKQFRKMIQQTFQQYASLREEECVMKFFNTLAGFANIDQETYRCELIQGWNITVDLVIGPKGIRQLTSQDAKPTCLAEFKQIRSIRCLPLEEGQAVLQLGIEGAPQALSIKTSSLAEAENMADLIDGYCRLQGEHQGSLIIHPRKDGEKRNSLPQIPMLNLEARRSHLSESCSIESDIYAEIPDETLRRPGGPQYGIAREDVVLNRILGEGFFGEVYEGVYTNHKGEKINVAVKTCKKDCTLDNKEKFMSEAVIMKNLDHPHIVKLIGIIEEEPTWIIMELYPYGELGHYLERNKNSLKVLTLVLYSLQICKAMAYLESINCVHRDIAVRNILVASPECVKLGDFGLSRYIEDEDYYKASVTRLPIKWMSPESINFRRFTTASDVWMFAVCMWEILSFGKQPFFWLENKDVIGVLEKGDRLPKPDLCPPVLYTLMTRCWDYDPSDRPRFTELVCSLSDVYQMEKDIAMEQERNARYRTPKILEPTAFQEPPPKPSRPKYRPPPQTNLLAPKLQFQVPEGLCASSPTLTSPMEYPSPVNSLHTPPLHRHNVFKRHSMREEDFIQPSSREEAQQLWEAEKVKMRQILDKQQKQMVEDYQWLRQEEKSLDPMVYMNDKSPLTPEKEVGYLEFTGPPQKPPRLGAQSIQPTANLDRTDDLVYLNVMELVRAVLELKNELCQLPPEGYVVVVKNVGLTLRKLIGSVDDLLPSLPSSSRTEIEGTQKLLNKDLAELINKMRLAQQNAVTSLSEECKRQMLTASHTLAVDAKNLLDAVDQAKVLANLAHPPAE
Experimental: as §1

PIK3CG = molecular target: T10, PIK3CG (Homo sapiens, UniProt P48736); settings: read-out: Direct inhibitory activity on PIK3CG (KINOMEscan)
T10 construct: purchased DiscoverX (San Diego, Calif.)
Experimental: as §1

S6K1 (RPS6KB1) = molecular target: T11, S6K1 (RPS6KB1) (Homo sapiens, UniProt P23443); settings: read-out: Direct inhibitory activity on S6K1 (KINOMEscan)
T11 construct: purchased DiscoverX (San Diego, Calif.) scanMAX
T11 sequence (P23443 whole entry): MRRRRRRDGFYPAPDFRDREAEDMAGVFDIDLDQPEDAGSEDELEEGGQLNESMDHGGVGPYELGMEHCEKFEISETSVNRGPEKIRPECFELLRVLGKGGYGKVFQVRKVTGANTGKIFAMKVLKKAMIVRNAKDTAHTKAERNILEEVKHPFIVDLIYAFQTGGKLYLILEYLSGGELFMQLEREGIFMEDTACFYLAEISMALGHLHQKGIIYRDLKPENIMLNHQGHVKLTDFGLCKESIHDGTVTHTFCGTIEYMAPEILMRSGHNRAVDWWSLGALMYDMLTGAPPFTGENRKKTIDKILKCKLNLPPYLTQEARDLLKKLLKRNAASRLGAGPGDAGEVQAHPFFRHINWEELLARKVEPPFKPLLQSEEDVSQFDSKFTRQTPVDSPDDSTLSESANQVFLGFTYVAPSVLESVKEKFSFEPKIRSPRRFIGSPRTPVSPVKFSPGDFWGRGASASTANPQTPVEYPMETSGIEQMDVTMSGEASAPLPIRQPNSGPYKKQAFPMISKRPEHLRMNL
Experimental: as §1

ERBB4 = molecular target: T12, ERBB4 (Homo sapiens, UniProt Q15303); settings: read-out: Direct inhibitory activity on ERBB4 (KINOMEscan)
T12 construct: purchased DiscoverX (San Diego, Calif.) scanMAX
T12 sequence (Q15303 26-1308): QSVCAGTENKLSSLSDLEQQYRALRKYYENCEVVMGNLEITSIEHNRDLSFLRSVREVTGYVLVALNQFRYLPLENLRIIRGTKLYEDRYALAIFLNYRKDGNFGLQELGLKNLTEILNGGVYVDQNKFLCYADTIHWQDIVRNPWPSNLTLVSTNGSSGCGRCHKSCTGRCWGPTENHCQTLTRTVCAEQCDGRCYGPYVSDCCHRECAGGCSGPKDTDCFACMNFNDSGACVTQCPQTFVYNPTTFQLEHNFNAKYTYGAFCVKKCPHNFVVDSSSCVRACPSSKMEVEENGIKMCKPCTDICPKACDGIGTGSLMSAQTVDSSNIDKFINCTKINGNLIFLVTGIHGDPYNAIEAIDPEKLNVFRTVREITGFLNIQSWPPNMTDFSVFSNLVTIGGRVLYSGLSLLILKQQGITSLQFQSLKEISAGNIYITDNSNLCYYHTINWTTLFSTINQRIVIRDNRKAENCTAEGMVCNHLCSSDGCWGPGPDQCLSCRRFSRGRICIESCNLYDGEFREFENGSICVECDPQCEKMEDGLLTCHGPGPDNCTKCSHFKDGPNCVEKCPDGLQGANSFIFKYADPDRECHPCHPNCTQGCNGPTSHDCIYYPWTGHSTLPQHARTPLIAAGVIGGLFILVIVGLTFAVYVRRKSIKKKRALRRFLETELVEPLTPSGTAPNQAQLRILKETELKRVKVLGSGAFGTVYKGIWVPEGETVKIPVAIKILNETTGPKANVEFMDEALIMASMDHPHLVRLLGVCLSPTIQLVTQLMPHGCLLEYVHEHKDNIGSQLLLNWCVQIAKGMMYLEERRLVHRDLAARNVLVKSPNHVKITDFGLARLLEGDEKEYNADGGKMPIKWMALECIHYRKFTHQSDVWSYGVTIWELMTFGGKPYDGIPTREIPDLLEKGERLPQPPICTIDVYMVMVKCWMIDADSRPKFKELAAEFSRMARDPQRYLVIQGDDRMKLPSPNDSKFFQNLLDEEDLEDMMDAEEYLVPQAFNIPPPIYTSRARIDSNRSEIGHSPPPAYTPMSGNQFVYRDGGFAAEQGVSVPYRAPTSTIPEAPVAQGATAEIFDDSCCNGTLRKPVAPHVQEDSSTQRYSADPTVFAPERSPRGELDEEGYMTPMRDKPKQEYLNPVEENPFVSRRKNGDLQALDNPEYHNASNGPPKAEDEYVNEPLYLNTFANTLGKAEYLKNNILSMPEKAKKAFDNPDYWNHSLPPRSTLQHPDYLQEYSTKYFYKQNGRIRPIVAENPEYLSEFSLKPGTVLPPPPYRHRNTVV
Experimental: as §1

CSK = molecular target: T13, CSK (Homo sapiens, UniProt P41240); settings: read-out: Direct inhibitory activity on CSK (KINOMEscan)
T13 construct: purchased DiscoverX (San Diego, Calif.)
Experimental: as §1

ERK4 (MAPK4) = molecular target: T14, ERK4 (MAPK4) (Homo sapiens, UniProt P31152); settings: read-out: Direct inhibitory activity on ERK4 (KINOMEscan)
T14 construct: purchased DiscoverX (San Diego, Calif.) scanMAX
T14 sequence (P31152 whole entry): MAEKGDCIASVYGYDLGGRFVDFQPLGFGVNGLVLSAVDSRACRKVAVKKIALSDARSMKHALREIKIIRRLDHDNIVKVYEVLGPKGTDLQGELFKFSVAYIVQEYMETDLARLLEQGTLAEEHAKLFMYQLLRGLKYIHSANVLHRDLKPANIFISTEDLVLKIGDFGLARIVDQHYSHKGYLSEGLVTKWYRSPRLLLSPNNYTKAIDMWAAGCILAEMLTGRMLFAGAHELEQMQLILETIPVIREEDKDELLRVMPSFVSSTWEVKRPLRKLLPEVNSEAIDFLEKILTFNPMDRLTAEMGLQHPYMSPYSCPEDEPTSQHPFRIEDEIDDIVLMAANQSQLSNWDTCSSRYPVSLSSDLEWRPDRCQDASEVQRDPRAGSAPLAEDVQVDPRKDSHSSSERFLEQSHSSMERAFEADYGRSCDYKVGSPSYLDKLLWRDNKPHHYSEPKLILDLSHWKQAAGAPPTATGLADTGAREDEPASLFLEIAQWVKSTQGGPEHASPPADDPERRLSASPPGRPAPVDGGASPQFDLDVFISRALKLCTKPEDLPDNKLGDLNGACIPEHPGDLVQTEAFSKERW
Experimental: as §1

T1 sequence (P28482 whole entry): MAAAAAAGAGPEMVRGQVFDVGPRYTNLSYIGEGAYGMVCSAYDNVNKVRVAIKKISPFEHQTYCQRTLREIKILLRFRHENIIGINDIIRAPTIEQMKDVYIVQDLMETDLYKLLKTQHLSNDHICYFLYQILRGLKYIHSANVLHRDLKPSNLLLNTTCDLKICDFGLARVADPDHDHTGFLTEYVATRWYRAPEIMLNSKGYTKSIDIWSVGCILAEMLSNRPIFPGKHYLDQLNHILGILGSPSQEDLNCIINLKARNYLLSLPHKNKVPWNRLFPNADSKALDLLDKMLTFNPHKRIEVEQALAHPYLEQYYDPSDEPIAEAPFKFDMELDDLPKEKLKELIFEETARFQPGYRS

## Cc1cccc(CC(=O)N2CCc3c2ccc(-c2cn(C)c4ncnc(N)c24)c3F)n1 [GSK2656157, reference compound]
ERK2 (MAPK1)
  inhibition at 0.2 µM: 0%
  inhibition at 2 µM: 0%
  inhibition at 20 µM: 0%
ERK3 (MAPK6)
  inhibition at 0.2 µM: 0%
  inhibition at 2 µM: 16%
  inhibition at 20 µM: 0%
SYK
  inhibition at 0.2 µM: 0%
  inhibition at 2 µM: 12%
  inhibition at 20 µM: 23%
EGFR
  inhibition at 0.2 µM: 18%
  inhibition at 2 µM: 16%
  inhibition at 20 µM: 50%
ERK8 (MAPK15)
  inhibition at 0.2 µM: 0%
  inhibition at 2 µM: 3%
  inhibition at 20 µM: 6%
AKT2
  inhibition at 0.2 µM: 0%
  inhibition at 2 µM: 4%
  inhibition at 20 µM: 8%
ERBB2
  inhibition at 0.2 µM: 57%
  inhibition at 2 µM: 64%
  inhibition at 20 µM: 97%
PIK3CB
  inhibition at 0.2 µM: 0%
  inhibition at 2 µM: 0%
  inhibition at 20 µM: 0%
PYK2 (PTK2B)
  inhibition at 0.2 µM: 0%
  inhibition at 2 µM: 0%
  inhibition at 20 µM: 3%
PIK3CG
  inhibition at 0.2 µM: 36%
  inhibition at 2 µM: 47%
  inhibition at 20 µM: 50%
S6K1 (RPS6KB1)
  inhibition at 0.2 µM: 0%
  inhibition at 2 µM: 30%
  inhibition at 20 µM: 56%
ERBB4
  inhibition at 0.2 µM: 0%
  inhibition at 2 µM: 0%
  inhibition at 20 µM: 0%
CSK
  inhibition at 0.2 µM: 0%
  inhibition at 2 µM: 33%
  inhibition at 20 µM: 64%
ERK4 (MAPK4)
  inhibition at 0.2 µM: 0%
  inhibition at 2 µM: 35%
  inhibition at 20 µM: 0%

## Cc1cc(NC(=O)[C@H](O)c2cc(F)cc(F)c2)ccc1-c1cnc(N)c(C(=O)NC(C)C)c1 [LY4, 2-amino-5-[4-[[(2R)-2-(3,5-difluorophenyl)-2-hydroxy-acetyl]amino]-2-methyl-phenyl]-N-isopropyl-pyridine-3-carboxamide]
ERK2 (MAPK1)
  inhibition at 0.2 µM: 0%
  inhibition at 2 µM: 0%
  inhibition at 20 µM: 1%
ERK3 (MAPK6)
  inhibition at 0.2 µM: 0%
  inhibition at 2 µM: 32%
  inhibition at 20 µM: 3%
SYK
  inhibition at 0.2 µM: 0%
  inhibition at 2 µM: 0%
  inhibition at 20 µM: 0%
EGFR
  inhibition at 0.2 µM: 30%
  inhibition at 2 µM: 23%
  inhibition at 20 µM: 16%
ERK8 (MAPK15)
  inhibition at 0.2 µM: 0%
  inhibition at 2 µM: 0%
  inhibition at 20 µM: 0%
AKT2
  inhibition at 0.2 µM: 0%
  inhibition at 2 µM: 0%
  inhibition at 20 µM: 0%
ERBB2
  inhibition at 0.2 µM: 0%
  inhibition at 2 µM: 0%
  inhibition at 20 µM: 0%
PIK3CB
  inhibition at 0.2 µM: 0%
  inhibition at 2 µM: 0%
  inhibition at 20 µM: 12%
PYK2 (PTK2B)
  inhibition at 0.2 µM: 0%
  inhibition at 2 µM: 0%
  inhibition at 20 µM: 6%
PIK3CG
  inhibition at 0.2 µM: 24%
  inhibition at 2 µM: 0%
  inhibition at 20 µM: 26%
S6K1 (RPS6KB1)
  inhibition at 0.2 µM: 31%
  inhibition at 2 µM: 0%
  inhibition at 20 µM: 24%
ERBB4
  inhibition at 0.2 µM: 0%
  inhibition at 2 µM: 0%
  inhibition at 20 µM: 4%
CSK
  inhibition at 0.2 µM: 31%
  inhibition at 2 µM: 0%
  inhibition at 20 µM: 14%
ERK4 (MAPK4)
  inhibition at 0.2 µM: 0%
  inhibition at 2 µM: 0%
  inhibition at 20 µM: 0%

Reference: US20210121527A1, “METHODS OF TREATING MINIMAL RESIDUAL CANCER” (ICAHN SCHOOL OF MEDICINE AT MOUNT SINAI, priority 2018, published 2021)
